This is an account of results in patent publication EP0326329B1, “Quinazoline derivatives useful as insecticides” (Dow AgroSciences LLC, priority 1988, dated 1989).

What all share (assay type): in vivo
Experiment [1] deals with Pseudoperonospora cubensis (downy mildew). Put plainly: Greenhouse Test 1, foliar spray fungicide screen (DOWN MDEW), host squash. The settings on record: disease control rating, 400 ppm (+++ at 100 ppm).
For experiment [2], the system named is Botrytis cinerea (gray mold). Description: Greenhouse Test 1, foliar spray fungicide screen (GRAY MOLD), host grape berries. The settings on record: disease control rating, 400 ppm (+++ at 100 ppm).
Experiment [3] deals with Twospotted spider mites (Tetranychus urticae Koch). Put plainly: Mite/insect screen, sprayed squash cotyledons (SM). The settings on record: Tetranychus urticae, percent mortality, read-out: SM RESULTS %; for mortality at 200 ppm: spray rate 200 ppm; for mortality at 400 ppm: spray rate 400 ppm. The essentials: (§1)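 Water-diluted formulations of each compound (acetone/alcohol 50:50 with 23 g/L and 13 g/L emulsifier blends) are sprayed over both leaf faces to runoff. After a standard exposure period, percent kill and phytotoxicity are recorded.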

Experiment [4] concerns southern armyworm (Spodopetra eridania Cramer). Put plainly: Mite/insect screen, sprayed squash leaves (SAW). The settings on record: Spodoptera eridania, percent mortality, read-out: SAW RESULTS %; for mortality at 200 ppm: spray rate 200 ppm; for mortality at 400 ppm: spray rate 400 ppm. The essentials: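 Percent mortality and phytotoxicity are the read-outs, assessed after standard exposure periods. Test solutions, made in 50:50 acetone/alcohol with two sulfonate/nonionic emulsifier blends and diluted in water, are sprayed to runoff on both leaf surfaces, which then dry for one hour.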

The subject of experiment [5] is Puccinia recondita tritici (leaf rust). Description: Greenhouse Test 1, foliar spray fungicide screen (LEAF RUST), host wheat. The settings on record: disease control rating, 400 ppm (+++ at 100 ppm).
Experiment [6] concerns melon aphids (Aphis gossypii Glover). Description: Mite/insect screen, sprayed squash cotyledons (MA). The settings on record: Aphis gossypii, percent mortality, read-out: MA RESULTS %; for mortality at 200 ppm: spray rate 200 ppm; for mortality at 400 ppm: spray rate 400 ppm. Summed up: as §1
The subject of experiment [7] is Erysiphe graminis tritici (powdery mildew). Description: Greenhouse Test 1, foliar spray fungicide screen (POWD MDEW), host wheat. The settings on record: disease control rating, 400 ppm (+++ at 100 ppm).
The subject of experiment [8] is Southern corn rootworm (Diabrotica undecimpuctata howardi Barber). Put plainly: Mite/insect screen, soil treatment (CRW). The settings on record: Diabrotica, percent mortality, soil treatment, read-out: CRW RESULTS %; for mortality at 12 ppm: CRW rate 12.00 ppm; for mortality at 24 ppm: CRW rate 24.00 ppm. The essentials:
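Compounds dissolved in acetone/alcohol (50:50) with Toximul R/S emulsifiers, diluted with water. Soil (15 g, with presoaked corn seed) treated with 1 mL test solution, dried 6–12 h, then five 2–3 instar larvae added; held at 23°C. Percent mortality and phytotoxicity scored after standard exposure periods.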

Experiment [9] has as its system Pyricularia oryzae (rice blast). The settings on record: disease control rating, foliar spray, host rice; 400 ppm (+++ at 100 ppm).

`Cc1ccc(CCNc2ncnc3c(F)cccc23)cc1` [Example 77, 8-fluoro-N-[2-(4-methylphenyl)ethyl]-4-quinazolinamine]: in experiment [1], the “DOWN MDEW” value is “- (- = 0-19% control at 400 ppm)”. Also, in experiment [2], the “GRAY MOLD” value was “- (- = 0-19% control at 400 ppm)”. The mortality at 200 ppm in experiment [3], in experiment [4] and in experiment [6] was 0% in each case. Also, the mortality at 400 ppm in [3], in experiment [4] and in experiment [6] was 0% throughout. Also, in experiment [5], the “LEAF RUST” value was “++ (++ = 90-100% control at 400 ppm)”. In [7], the “POWD MDEW” value is recorded as “- (- = 0-19% control at 400 ppm)”. Also, the mortality at 12 ppm in experiment [8] was determined as 0%. In experiment [8], the mortality at 24 ppm was 0%. In addition, the “RICE BLAST” value in experiment [9] was “++ (++ = 90-100% control at 400 ppm)”.

With `Fc1cccc2c(NCCc3ccc(Cl)cc3)ncnc12` [Example 78, 8-fluoro-N-[2-(4-chlorophenyl)ethyl]-4-quinazolinamine], the “DOWN MDEW” value in [1] was “+++ (+++ = 90-100% control at 100 ppm)”. In experiment [2], the “GRAY MOLD” value was “- (- = 0-19% control at 400 ppm)”. In addition, in experiment [3], the mortality at 200 ppm amounted to 0% and the mortality at 400 ppm worked out at 0%. For the same molecule, in [4], the mortality at 200 ppm worked out at 100% and the mortality at 400 ppm came to 80%. In experiment [5], the “LEAF RUST” value is given as “+++ (+++ = 90-100% control at 100 ppm)”. In addition, in experiment [6], the mortality at 200 ppm was 0% and the mortality at 400 ppm worked out at 0%. Besides, in experiment [7], the “POWD MDEW” value is on record as “+ (+ = 20-89% control at 400 ppm)”. Further, in [8], the mortality at 12 ppm was found to be 0% and the mortality at 24 ppm was determined as 100%. The “RICE BLAST” value in experiment [9] is reported as “+++ (+++ = 90-100% control at 100 ppm)”.

Consider `CC(C)c1ccc(CCNc2ncnc3ccc(Br)cc23)cc1` [Example 79, 6-bromo-N-[2-[4-(i-propyl)phenyl]ethyl]-4-quinazolinamine], for which the “DOWN MDEW” value in experiment [1] was “+++ (+++ = 90-100% control at 100 ppm)”. The “GRAY MOLD” value in experiment [2] is “- (- = 0-19% control at 400 ppm)”. Also, the mortality at 200 ppm in experiment [3] turned out to be 50%; in experiment [4] it was 0%; in [6] it was 50%. The mortality at 400 ppm in [3], in [4] and in [6] was 0% each time. In [5], the “LEAF RUST” value was “++ (++ = 90-100% control at 400 ppm)”. For the same molecule, the “POWD MDEW” value in experiment [7] was “+ (+ = 20-89% control at 400 ppm)”. Besides, in experiment [8], the mortality at 12 ppm is 0%. Also, in [8], the mortality at 24 ppm is 0%. In addition, the “RICE BLAST” value in [9] is recorded as “+++ (+++ = 90-100% control at 100 ppm)”.

`c1ccc2cc(CCOc3ncnc4ccccc34)ccc2c1` [Example 80, 4-[2-(2-naphthyl)ethoxy]quinazoline]: the “DOWN MDEW” value in [1] is reported as “+++ (+++ = 90-100% control at 100 ppm)”. The “GRAY MOLD” value in experiment [2] is “- (- = 0-19% control at 400 ppm)”. The mortality at 400 ppm worked out at 100% in experiment [3], 0% in experiment [4] and 100% in [6]. Besides, the “LEAF RUST” value in experiment [5] is reported as “+++ (+++ = 90-100% control at 100 ppm)”. For the same molecule, the “POWD MDEW” value in [7] is “+++ (+++ = 90-100% control at 100 ppm)”. In addition, the mortality at 24 ppm in [8] stood at 100%. Besides, in experiment [9], the “RICE BLAST” value is reported as “+++ (+++ = 90-100% control at 100 ppm)”.

On to `CC(C)c1ccc(CCOc2ncnc3ccccc23)cc1` [Example 88, 4-[2-[4-(i-propyl)phenyl]ethoxy]quinazoline], for which the “DOWN MDEW” value in [1] is “+++ (+++ = 90-100% control at 100 ppm)”. Also, the “GRAY MOLD” value in [2] is on record as “- (- = 0-19% control at 400 ppm)”. Further, the results for the mortality at 200 ppm in experiment [3], in [4] and in experiment [6] were 100%, 0% and 100%, respectively. Also, the mortality at 400 ppm in [3] was determined as 0%; in experiment [4], 100%; in [6], 0%. Further, the “LEAF RUST” value in experiment [5] is recorded as “+++ (+++ = 90-100% control at 100 ppm)”. Moreover, the “POWD MDEW” value in experiment [7] was “+++ (+++ = 90-100% control at 100 ppm)”. In experiment [8], the mortality at 12 ppm was 0%. In addition, in experiment [8], the mortality at 24 ppm was 0%. Also, in experiment [9], the “RICE BLAST” value is listed as “+++ (+++ = 90-100% control at 100 ppm)”.
